Measurements taken from US20230149388A1, “OPIOID ANTAGONIST FORMULATIONS” (EMERGENT PRODUCT DEVELOPMENT GAITHERSBURG INC., priority 2020, published 2023).

Experiment: Pharmacokinetics of naloxone in Beagle dog, IM injection
Assay type: in vivo
Settings: both sexes, plasma, 0.3 mg/kg, Beagle dogs
Procedure: Pharmacokinetic (“PK”) data was collected from male and female Beagle dogs. Two (2) animals of each sex were assigned to three cohorts. […] Each injection was administered at a dose of 0.3 mg/kg.
Blood samples were collected from each animal following IV injections at target time points of pre-dose, and at 0.033, 0.083, 0.167, 0.333, 0.5, 1, 2, 4, and 8 hr. Blood samples were also collected from each animal following IM injections at target time points of pre dose, and at 0.083, 0.167, 0.25, 0.333, 0.5, 1, 2, 4, and 8 hr. Blood samples were collected into tubes containing dipotassium ethylenediaminetetraacetic acid (K2EDTA), processed to plasma, and stored until analyzed for naloxone.
PK analysis was performed using the target dose (mg/kg), sample collection time points (hr), and the measured concentrations of naloxone (ng/mL) in serum. If the actual sample collection time points were within 5% of target from 0 to 4 hours or within 15 minutes after 4 hours, then the target time points were used. […] The lower limit of quantitation (LLOQ) in plasma for this method is 0.2 ng/mL.
The method utilized protein precipitation in a 96-well format and LC-MS/MS analysis. The literature method was modified to utilize a larger sample size (50 μL) analysis.
The concentration-time profiles were evaluated using the non-compartmental analysis (NCA) module in the WinNonlin® software program (Version 8.2). […]

Compound: C=CCN1CC[C@]23c4c5ccc(O)c4O[C@H]2C(=O)CC[C@@]3(O)[C@H]1C5 [naloxone]
- Tmax (following IM injection, typical value): ~15 min
- half-life (following both IM and IV injection, read-out: group mean elimination half-life): 28 to 35 min
